{"source": "patent EP4653001A1", "about": "“TREATMENT, DIAGNOSIS AND/OR PROGNOSIS OF MITOCHONDRIAL DISEASES” (Universidad Autónoma de Madrid, priority 2024, dated 2025)", "key": {"143B cells [1]": {"tested_on": "143B cells", "experiment": "Lactate release in 143B cells (proxy of glycolysis)", "type": "cell-based", "settings": "24 h", "procedure": "Increased lactate secretion is considered a good indicator of enhanced glycolytic rates, which is a common feature of ETC-inhibited cells as they switch from OXPHOS to glycolysis to maintain ATP levels. […] We culture 143B cells in the presence of Piericidin for 24 h and PPP activity and lactate release, as a proxy of glycolysis, were measured. As expected, lactate detection in the media was higher in CI-inhibited cells. […] Next, we wonder if in this context, glucose can be overused by glycolysis and therefore diverted away from the PPP. Diseases associated with impaired mitochondrial function negatively impact high energy demanding tissues such as the brain. As such, neurons that are highly sensitive to ETC inhibition also rely strongly on glucose metabolism. Thus, we used mouse cortical neurons to determine the rates of glycolysis and PPP as glucose levels become limiting. Control and Piericidin treated neurons where cultured in media containing supraphysiological (25 mM), physiological (5 mM) or subphysiological concentrations of glucose (2,5 mM). […] Decreased PPP activity under low glucose (2,5 mM) correlated with a rapid decline in NADPH/NADP+ levels in CI-inhibited cells. Conversely, glucose availability had no effect on ATP levels at this timepoint."}, "primary neurons": {"tested_on": "primary neurons", "experiment": "Patch-clamp capacitance analysis", "type": "cell-based, mouse", "settings": "CI inhibition", "procedure": "A glass coverslip containing mixed cortical cultures of 10-14 DIV was placed in an immersion chamber constantly perfused with aCSF (119 mM NaCl, 2.5 mM KCl, 2.5 mM CaCl2, 1.2 mM MgCl2, 26 mM NaHCO3, 1 mM NaH2PO4, 11 mM glucose pH adjusted to 7.4 and osmolarity to 290 ±5 mOsm) gassed with carbogen (5-10% CO2, 90-95% O2) and its temperature closely monitored at 29°C. Cells were recorded under current-clamp configuration with patch recording glass electrodes (4-6 MΩ) composed of silver/silver chloride electrodes inserted in glass pipettes filled with internal solution (115 mM K gluconate, 20 mM KCl, 10 mM HEPES, 2 mM MgCl2, 4 mM Na2-ATP, 0.3 mM Na3-GTP pH adjusted to 7.2-7.3 and osmolarity to 290 ±5 mOsm). Resting membrane potential was directly acquired from these recordings. Voltage responses to current injections of -100 pA were used to calculate whole-cell input resistance and membrane capacitance. This last parameter is calculated from the exponential time constant (τ) of the voltage change, as τ=R*C (R: input resistance, C: capacitance).\nData acquisition was carried out with MultiClamp 700 A/B amplifiers and pCLAMP 9/10 software (Molecular Devices). Data analysis was performed using Clampfit software (Molecular Devices)."}, "143B cells [2]": {"tested_on": "143B cells", "experiment": "Metabolomics of intracellular metabolites in 143B cells", "type": "cell-based", "settings": "48 h", "procedure": "1-5.0×10^6 cells were harvested on dry ice with 1 mL pre-chilled 80% HPLC-grade methanol (Fluka Analytical). The cell mixture was incubated for 15 min on dry ice prior to centrifugation at 18,000 × g for 10 min at 4°C. The supernatant was retained, and the remaining cell pellet was resuspended in 800 µL chilled 80% methanol and centrifuged. Supernatant was combined with the previous retention and was lyophilized using a SpeedVac (Thermo Fisher). Lyophilized samples were resuspended in 20 µL ultrapure water and subjected to metabolomics profiling using the AB/SCIEX 5500 QTRAP triple quadrupole instrument. Data analysis was performed using the GiTools software. 13C-labeled glutamine and glucose was acquired in SIGMA (605166 and 389374).\nNext, we conducted time-course experiments to gain further knowledge on the metabolic determinants underlying the observed synthetic lethality between PPP and OXPHOS. 143B cells were treated either with Piericidin or G6PDi (selective inhibitor of G6PD) alone or the combination of both and cell proliferation was quantified over the course of 96 h. […] Conversely, dual inhibition produced a marked reduction in cell survival beyond 48 h of treatment that was even more accentuated at 96 h (Figure 2A). […]"}, "mouse cortical neurons": {"tested_on": "mouse cortical neurons", "experiment": "NADPH/NADP+ levels in neurons (NADP/NADPH-Glo)", "type": "cell-based", "settings": "CI-inhibited neurons", "procedure": "Primary cultures of C57BL/6 mouse cortical neurons were prepared from embryos between embryonic days 16.5 and 17.5 and seeded onto pre-treated plates coated with Poly-L-lysine hydrobromide (500 µg/ml). We used Neurobasal medium without D-glucose and sodium pyruvate (ThermoFisher) to modulate D-glucose levels, depending on the experiment (2.5 mM, 5 mM, or 25 mM).\nIn standard experiments, we utilized Neurobasal medium with 25 mM D-glucose, 1 mM sodium pyruvate (ThermoFisher), B27 plus supplement (GIBCO), GlutaMax I 100X (GIBCO), and 1% penicillin/streptomycin (P/S). Starting from day 6 in vitro (DIV6), half of the medium was replaced every 3-4 days, omitting GlutaMax I.\nThe NADP/NADP-Glo™ Assay (Promega) was employed to assess the NADP/NADPH ratio in cultured cells, following the manufacturer's instructions (Technical Bulletin Number TM400). This bioluminescent assay can detect both total oxidized and reduced nicotinamide adenine dinucleotide phosphates (NADP+ and NADPH) and determine their ratio.\nCells were cultured in 24-well plates (Falcon®) at varying concentrations depending on the cell type and the specific experiment. After removing the media, we added 100 µl of PBS 1X per well and lysed the cells by introducing 100 µl of a base solution with 1% DTAB (1:1 ratio). […] Luminescence was measured using the CLARIOstar Plus plate reader from BMG LABTECH."}}}
{"smiles": "CC=C(C)C(O)C(C)C=C(C)C=CCC(C)=CCc1nc(OC)c(OC)c(O)c1C", "note": "(stereo not drawn) [Piericidin, Piericidin A]", "values": [{"measurement": "lactate detection in the media", "setting": "143B cells [1]", "value": "higher"}, {"measurement": "capacitance", "setting": "primary neurons", "value": "lower"}, {"measurement": "NADH", "setting": "143B cells [2]", "value": "accumulation"}, {"measurement": "intracellular levels of NADPH", "setting": "143B cells [2]", "value": "did not exert significant changes"}, {"measurement": "NADPH levels", "setting": "mouse cortical neurons; 100 nM, 24 h", "value": "marked drop"}, {"measurement": "NADPH/NADP+ levels", "setting": "mouse cortical neurons; low glucose (2,5 mM)", "value": "rapid decline"}]}
